Where a SMILES comes first, the peptide text is derived from it.
What was measured:
human GRF receptor = target: T1, human GRF receptor (Homo sapiens, UniProt Q02643); assay: Alkaline phosphatase (AP) assay, GHRHr agonist activity; format: cell-based; details: BHK cells stably expressing human GRF receptor and alkaline phosphatase reporter gene; 24 hrs stimulation; read-out: EC50 (nM) as assessed by alkaline phosphatase (AP) induction
T1 construct: expressed in transfected cells; host or cells: baby hamster kidney (BHK) cells, stably transfected
T1 sequence (Q02643 23-423): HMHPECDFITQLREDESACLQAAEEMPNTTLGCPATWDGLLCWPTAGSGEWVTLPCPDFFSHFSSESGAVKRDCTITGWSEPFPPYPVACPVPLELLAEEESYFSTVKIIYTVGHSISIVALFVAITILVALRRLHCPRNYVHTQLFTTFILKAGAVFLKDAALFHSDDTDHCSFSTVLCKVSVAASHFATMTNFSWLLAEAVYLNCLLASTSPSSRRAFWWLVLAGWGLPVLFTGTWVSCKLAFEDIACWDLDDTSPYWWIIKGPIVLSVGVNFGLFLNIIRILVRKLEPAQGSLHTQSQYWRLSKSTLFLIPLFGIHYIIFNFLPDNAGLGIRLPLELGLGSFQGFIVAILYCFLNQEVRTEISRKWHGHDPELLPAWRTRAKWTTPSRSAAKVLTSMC
Description: The activity of representative GRF peptides was tested on baby hamster kidney (BHK) cells stably transfected to express the human GRF receptor and an alkaline phosphatase reporter gene. Cells were cultured 24 hours before stimulation, in 96-well plates, at a concentration of 0.5×10^5 cells/well. Before stimulation, cells were washed twice with DPBS and incubated 10-30 min in assay buffer (DMEM without phenol red supplemented with 20 mM HEPES and 1% heat inactivated fetal bovine serum (FBS). The dose response curve of the GRF peptides was done for 24 hrs with concentrations of peptides from 10^−5 M to 10^−11 M. Supernatant was collected and analysis of alkaline phosphatase levels was performed using the Alkaline Phosphatase detection kit from Applied Biosystems.
The in vitro activity of representative GRF analogs was tested on baby hamster kidney (BHK) cells expressing human GHRHr.

Growth Hormone secretion [1] = assay: Growth Hormone secretion in female rats after subcutaneous GRF analog; format: in vivo; details: female Sprague-Dawley rats; 10 μg/rat subcutaneous; plasma 0-60 minutes
Excerpt: Sprague-Dawley rats (female, weighting from 250 to 300 g) were obtained from Charles River Inc. Animals were used according to a protocol of the Animal Care Committee along with the principles of the Guide for the Care and Use of Experimental Animals of the Canadian Council on Animal Care. The animals were maintained on standard laboratory chow under a 12:12 light:dark cycle. They were kept in groups of 4 rats per cage.
The animals were anesthetized with isoflurane 2.5%. A mid-section opening was made in the neck to expose the carotid artery. The carotid artery was canulated with polypropylene tubing (PE-50) to allow blood withdrawal. After surgical preparation, rats received a subcutaneous injection of GRF analog (10 μg/rat dissolved in 20 mM AcONa+5% mannitol at pH 5). For pharmacodynamics studies, blood samples (400 μL) were collected from 4 to 8 animals per group per time point. Blood samples (400 μl) were collected via the carotid catheter at 0, 10, 20, 30, 45 and 60 minutes after drug injection. Blood was placed into microtainer pre-treated with K3EDTA and immediately centrifuged at 13,000 RPM in a desktop centrifuge for 2 minutes. The plasma was collected and placed into a screw cap Eppendorf™ and quick frozen in liquid nitrogen. The samples were then kept at −80° C. until assayed. Determination of GH levels was performed as described below.
(§1) Rat and mouse plasma samples were vortexed carefully and centrifuged at 9,000 RPM for 2 min at 4° C. The dosage of GH levels was performed using the Rat/Mouse Growth Hormone ELISA kit from Millipore (Cat. # EZRMGH-45K). Sample supernatants were first diluted 20-fold with the GH ELISA assay buffer, and 10 μl of this dilution was added to the ELISA plate with 90 μl of GH EIA assay buffer. The remaining of the procedure was performed according to the manufacturer's instructions, and the data obtained were analyzed using GraphPad Prism™ software.
(§2) The GRF analogs described herein were tested for their ability to induce GH release in female mice and rats. […] The data are presented in Tables III (mice) and IV-V (rats).

Growth Hormone secretion [2] = assay: Growth Hormone secretion in female mice after subcutaneous GRF analog; format: in vivo; details: female CD-1 mice; 10 μg/mouse subcutaneous; plasma 10 minutes after injection
Excerpt: CD-1 mice (female, weighting from 20 to 25 g) were obtained from Charles River Inc. Animals were used according to a protocol of the Animal Care Committee along with the principles of the Guide for the Care and Use of Experimental Animals of the Canadian Council on Animal Care. The animals were maintained on standard laboratory chow under a 12:12 light:dark cycle. They were kept in groups of 4 mice per cage.
At the day of the experiment, mice received a subcutaneous injection of GRF analog (10 μg/mouse dissolved in 20 mM sodium acetate (AcONa)+5% mannitol at pH 5). 10 minutes after injection, the mice were anesthezied with isolufrane. Blood samples (500 μl) were obtained by intra-cardiac puncture. Blood was placed into microtainer pre-treated with K3EDTA and immediately centrifuged at 13,000 RPM in a desktop centrifuge for 2 minutes. The plasma was collected and placed into a screwcap Eppendorf™ tube and quick frozen in liquid nitrogen. The samples were then kept at −80° C. until assayed. Determination of GH levels was performed as described below.
as §1, §2

Row | SMILES | EC50 (human GRF receptor) | Mean AUC (GH Area Under the curve, GH concentration over time) (Growth Hormone secretion [1]) | Mean Cmax (ng/ml) of Growth Hormone secretion (Growth Hormone secretion [1]) | GH levels 10 min (Growth Hormone secretion [2])
1 | CC[C@H](C)[C@H](NC(=O)[C@H](C)NC(=O)[C@H](CC(=O)O)NC(=O)CNC(=O)[C@@H](N)Cc1ccc(O)cc1)C(=O)N[C@@H](Cc1ccccc1)C(=O)N[C@H](C(=O)N[C@@H](CC(=O)O)C(=O)N[C@@H](CO)C(=O)N[C@@H](Cc1ccc(O)cc1)C(=O)N[C@@H](CCCNC(=N)N)C(=O)N[C@@H](CCCCN)C(=O)N[C@H](C(=O)N[C@@H](CC(C)C)C(=O)N[C@@H](C)C(=O)N[C@@H](CCC(N)=O)C(=O)N[C@@H](CC(C)C)C(=O)N[C@@H](CCCCN)C(=O)N[C@@H](C)C(=O)N[C@@H](CCCNC(=N)N)C(=O)N[C@@H](CCC(N)=O)C(=O)N[C@@H](CC(=O)O)C(=O)N[C@H](C(=O)N[C@@H](CC(C)C)C(=O)N[C@@H](C)C(=O)N[C@@H](CCCNC(=N)N)C(=O)N[C@@H](C)C(=O)N[C@@H](C)C(=O)N[C@@H](CCCNC(=N)N)C(=O)N[C@@H](C)C(=O)N[C@@H](C)C(=O)N[C@@H](CCCNC(=N)N)C(=O)N[C@@H](CCO)C(N)=O)[C@@H](C)CC)C(C)C)[C@@H](C)O [SEQ ID NO: 36, YGDAIFTDSYRKVLAQLKARQDILARAARAAR-HoSer-NH2] (HELM PEPTIDE1{Y.G.D.A.I.F.T.D.S.Y.R.K.V.L.A.Q.L.K.A.R.Q.D.I.L.A.R.A.A.R.A.A.R.[O=C([C@H](CCO)N[*:1])[*:2]].[am]}$$$$V2.0) | 0.2 nM | 6211 | 373.5 ng/mL | –
2 | CC[C@H](C)[C@H](NC(=O)[C@H](C)NC(=O)[C@H](CC(=O)O)NC(=O)[C@@H](C)NC(=O)[C@@H](N)Cc1ccc(O)cc1)C(=O)N[C@@H](Cc1ccccc1)C(=O)N[C@H](C(=O)N[C@@H](CC(=O)O)C(=O)N[C@@H](CO)C(=O)N[C@@H](Cc1ccc(O)cc1)C(=O)N[C@@H](CCCNC(=N)N)C(=O)N[C@@H](CCCCN)C(=O)N[C@H](C(=O)N[C@@H](CC(C)C)C(=O)N[C@@H](C)C(=O)N[C@@H](CCC(N)=O)C(=O)N[C@@H](CC(C)C)C(=O)N[C@@H](CCCCN)C(=O)N[C@@H](C)C(=O)N[C@@H](CCCNC(=N)N)C(=O)N[C@@H](CCC(N)=O)C(=O)N[C@@H](CC(=O)O)C(=O)N[C@H](C(=O)N[C@@H](CC(C)C)C(=O)N[C@@H](C)C(=O)N[C@@H](CCCNC(=N)N)C(=O)N[C@@H](C)C(=O)N[C@@H](C)C(=O)N[C@@H](CCCNC(=N)N)C(=O)N[C@@H](C)C(=O)N[C@@H](C)C(=O)N[C@@H](CCCNC(=N)N)C(=O)N[C@@H](CCO)C(N)=O)[C@@H](C)CC)C(C)C)[C@@H](C)O [SEQ ID NO: 37, Y-a-DAIFTDSYRKVLAQLKARQDILARAARAAR-HoSer-NH2] (HELM PEPTIDE1{Y.[dA].D.A.I.F.T.D.S.Y.R.K.V.L.A.Q.L.K.A.R.Q.D.I.L.A.R.A.A.R.A.A.R.[O=C([C@H](CCO)N[*:1])[*:2]].[am]}$$$$V2.0) | 0.2 nM | 14757 | 594.6 ng/mL | –
3 | CC/C=C/CC(=O)N[C@@H](Cc1ccc(O)cc1)C(=O)N[C@@H](C)C(=O)N[C@@H](CC(=O)O)C(=O)N[C@@H](C)C(=O)N[C@H](C(=O)N[C@@H](Cc1ccccc1)C(=O)N[C@H](C(=O)N[C@@H](CC(=O)O)C(=O)N[C@@H](CO)C(=O)N[C@@H](Cc1ccc(O)cc1)C(=O)N[C@@H](CCCNC(=N)N)C(=O)N[C@@H](CCCCN)C(=O)N[C@H](C(=O)N[C@@H](CC(C)C)C(=O)N[C@@H](C)C(=O)N[C@@H](CCC(N)=O)C(=O)N[C@@H](CC(C)C)C(=O)N[C@@H](CO)C(=O)N[C@@H](C)C(=O)N[C@@H](CCCNC(=N)N)C(=O)N[C@@H](CCC(N)=O)C(=O)N[C@@H](CC(=O)O)C(=O)N[C@H](C(=O)N[C@@H](CCSC)C(=O)N[C@@H](CO)C(=O)N[C@@H](CCCNC(=N)N)C(N)=O)[C@@H](C)CC)C(C)C)[C@@H](C)O)[C@@H](C)CC [SEQ ID NO: 44, Trans-3-hexenoyl-YADAIFTDSYRKVLAQLSARQDIMSR-NH2] (HELM PEPTIDE1{[CC/C=C/CC(=O)[*:2]].Y.A.D.A.I.F.T.D.S.Y.R.K.V.L.A.Q.L.S.A.R.Q.D.I.M.S.R.[am]}$$$$V2.0) | – | 984 | 44.2 ng/mL | 15.2 ng/mL
4 | CC/C=C/CC(=O)N[C@@H](Cc1ccc(O)cc1)C(=O)N[C@@H](C)C(=O)N[C@@H](CC(=O)O)C(=O)N[C@@H](C)C(=O)N[C@H](C(=O)N[C@@H](Cc1ccccc1)C(=O)N[C@H](C(=O)N[C@@H](CC(=O)O)C(=O)N[C@@H](CO)C(=O)N[C@@H](Cc1ccc(O)cc1)C(=O)N[C@@H](CCCNC(=N)N)C(=O)N[C@@H](CCCCN)C(=O)N[C@H](C(=O)N[C@@H](CC(C)C)C(=O)N[C@@H](C)C(=O)N[C@@H](CCC(N)=O)C(=O)N[C@@H](CC(C)C)C(=O)N[C@@H](CO)C(=O)N[C@@H](C)C(=O)N[C@@H](CCCNC(=N)N)C(=O)N[C@@H](CCC(N)=O)C(=O)N[C@@H](CC(=O)O)C(=O)N[C@H](C(=O)N[C@@H](CC(C)C)C(=O)N[C@@H](C)C(=O)N[C@@H](CCCNC(=N)N)C(N)=O)[C@@H](C)CC)C(C)C)[C@@H](C)O)[C@@H](C)CC [SEQ ID NO: 45, Trans-3-hexenoyl-YADAIFTDSYRKVLAQLSARQDILAR-NH2] (HELM PEPTIDE1{[CC/C=C/CC(=O)[*:2]].Y.A.D.A.I.F.T.D.S.Y.R.K.V.L.A.Q.L.S.A.R.Q.D.I.L.A.R.[am]}$$$$V2.0) | – | 1953 | 78.8 ng/mL | 102.1 ng/mL
5 | CC/C=C/CC(=O)N[C@@H](Cc1ccc(O)cc1)C(=O)N[C@@H](C)C(=O)N[C@@H](CC(=O)O)C(=O)N[C@@H](C)C(=O)N[C@H](C(=O)N[C@@H](Cc1ccccc1)C(=O)N[C@H](C(=O)N[C@@H](CC(=O)O)C(=O)N[C@@H](CO)C(=O)N[C@@H](Cc1ccc(O)cc1)C(=O)N[C@@H](CCCNC(=N)N)C(=O)N[C@@H](CCCCN)C(=O)N[C@H](C(=O)N[C@@H](CC(C)C)C(=O)N[C@@H](C)C(=O)N[C@@H](CCC(N)=O)C(=O)N[C@@H](CC(C)C)C(=O)N[C@@H](CO)C(=O)N[C@@H](C)C(=O)N[C@@H](CCCNC(=N)N)C(=O)N[C@@H](CCC(N)=O)C(=O)N[C@@H](CC(=O)O)C(=O)N[C@H](C(=O)N[C@@H](CC(C)C)C(=O)N[C@@H](CO)C(=O)N[C@H](CCCNC(=N)N)C(N)=O)[C@@H](C)CC)C(C)C)[C@@H](C)O)[C@@H](C)CC [SEQ ID NO: 46, Trans-3-hexenoyl-YADAIFTDSYRKVLAQLSARQDILS-r-NH2] (HELM PEPTIDE1{[CC/C=C/CC(=O)[*:2]].Y.A.D.A.I.F.T.D.S.Y.R.K.V.L.A.Q.L.S.A.R.Q.D.I.L.S.[dR].[am]}$$$$V2.0) | – | 1453 | 57.3 ng/mL | 10.6 ng/mL
